Earlier results in PMC9851200, “Multiparameter phenotypic screening for endogenous TFEB and TFE3 translocation identifies novel chemical series modulating lysosome function” (Autophagy, 2022).

Columns and labels:
Design in all cases: method as in original PKIS2 published data
[1] = target: kinases (KINOMEscan panel) (Homo sapiens, UniProt P08631); details: kinase HCK; Published KINOMEscan; ref original PKIS2 published data; cited from earlier work
[2] = target: kinases (KINOMEscan panel) (Homo sapiens, UniProt P35590); details: TIE1; Published KINOMEscan; ref original PKIS2 published data; cited from earlier work
kinases (KINOMEscan panel) (Homo sapiens, UniProt P35590), sequence (P35590 22-1138): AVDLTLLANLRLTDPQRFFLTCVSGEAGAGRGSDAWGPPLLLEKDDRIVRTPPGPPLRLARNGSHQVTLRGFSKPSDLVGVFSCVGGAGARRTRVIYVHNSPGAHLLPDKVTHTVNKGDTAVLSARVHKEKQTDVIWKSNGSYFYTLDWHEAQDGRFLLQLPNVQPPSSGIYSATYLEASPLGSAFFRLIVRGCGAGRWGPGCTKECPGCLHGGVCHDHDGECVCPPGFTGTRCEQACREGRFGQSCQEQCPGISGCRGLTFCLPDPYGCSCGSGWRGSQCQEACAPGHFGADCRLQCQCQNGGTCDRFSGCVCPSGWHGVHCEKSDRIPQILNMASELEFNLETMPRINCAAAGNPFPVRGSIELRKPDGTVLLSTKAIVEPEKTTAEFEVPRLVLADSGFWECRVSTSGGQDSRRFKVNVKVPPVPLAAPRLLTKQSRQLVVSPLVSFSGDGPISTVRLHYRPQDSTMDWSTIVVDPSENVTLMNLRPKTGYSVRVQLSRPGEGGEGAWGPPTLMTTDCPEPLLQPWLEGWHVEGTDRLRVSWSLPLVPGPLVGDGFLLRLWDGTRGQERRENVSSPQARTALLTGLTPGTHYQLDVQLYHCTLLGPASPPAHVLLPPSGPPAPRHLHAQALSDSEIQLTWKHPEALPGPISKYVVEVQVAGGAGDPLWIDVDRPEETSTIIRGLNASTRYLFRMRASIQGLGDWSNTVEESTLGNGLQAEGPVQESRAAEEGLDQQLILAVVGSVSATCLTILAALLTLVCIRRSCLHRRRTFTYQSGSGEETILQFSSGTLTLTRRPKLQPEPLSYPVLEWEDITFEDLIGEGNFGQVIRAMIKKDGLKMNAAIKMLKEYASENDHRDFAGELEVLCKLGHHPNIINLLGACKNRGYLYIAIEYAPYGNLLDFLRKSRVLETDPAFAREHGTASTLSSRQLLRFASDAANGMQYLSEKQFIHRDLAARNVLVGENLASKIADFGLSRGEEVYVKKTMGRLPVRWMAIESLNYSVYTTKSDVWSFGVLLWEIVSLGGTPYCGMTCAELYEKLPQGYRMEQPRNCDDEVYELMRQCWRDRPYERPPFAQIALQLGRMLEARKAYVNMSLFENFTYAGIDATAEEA

[3] = target: kinases (KINOMEscan panel) (Homo sapiens, UniProt Q2M2I8); details: AAK1; Published KINOMEscan; ref original PKIS2 published data; cited from earlier work
kinases (KINOMEscan panel) (Homo sapiens, UniProt Q2M2I8), sequence (Q2M2I8 whole entry): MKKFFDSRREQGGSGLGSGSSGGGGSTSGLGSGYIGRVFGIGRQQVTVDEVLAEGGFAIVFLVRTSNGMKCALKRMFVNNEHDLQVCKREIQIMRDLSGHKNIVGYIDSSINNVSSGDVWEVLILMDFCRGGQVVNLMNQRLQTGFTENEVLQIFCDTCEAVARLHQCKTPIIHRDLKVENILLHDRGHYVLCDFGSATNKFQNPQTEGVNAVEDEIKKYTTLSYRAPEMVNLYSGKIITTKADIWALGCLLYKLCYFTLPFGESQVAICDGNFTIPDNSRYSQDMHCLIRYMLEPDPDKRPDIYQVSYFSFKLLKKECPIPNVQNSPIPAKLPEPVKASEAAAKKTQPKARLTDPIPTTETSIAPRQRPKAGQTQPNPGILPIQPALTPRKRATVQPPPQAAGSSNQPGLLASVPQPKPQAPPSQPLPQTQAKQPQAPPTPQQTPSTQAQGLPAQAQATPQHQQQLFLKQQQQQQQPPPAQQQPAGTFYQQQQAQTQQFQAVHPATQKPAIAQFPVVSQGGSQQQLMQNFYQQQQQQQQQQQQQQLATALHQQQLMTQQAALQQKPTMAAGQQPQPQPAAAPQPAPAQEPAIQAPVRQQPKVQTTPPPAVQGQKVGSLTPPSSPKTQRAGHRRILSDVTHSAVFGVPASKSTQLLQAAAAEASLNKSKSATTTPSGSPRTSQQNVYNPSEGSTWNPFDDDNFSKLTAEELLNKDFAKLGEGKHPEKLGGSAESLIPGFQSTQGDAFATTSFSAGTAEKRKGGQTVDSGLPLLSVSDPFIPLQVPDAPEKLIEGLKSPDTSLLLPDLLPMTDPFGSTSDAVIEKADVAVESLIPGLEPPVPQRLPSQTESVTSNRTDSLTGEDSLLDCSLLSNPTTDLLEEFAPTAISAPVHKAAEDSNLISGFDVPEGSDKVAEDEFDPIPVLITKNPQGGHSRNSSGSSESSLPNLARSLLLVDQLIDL

[4] = target: T1, kinases (KINOMEscan panel) (Homo sapiens, UniProt Q6PHR2); details: kinase ULK3; Published KINOMEscan; ref original PKIS2 published data; cited from earlier work
T1 sequence (Q6PHR2 1-472): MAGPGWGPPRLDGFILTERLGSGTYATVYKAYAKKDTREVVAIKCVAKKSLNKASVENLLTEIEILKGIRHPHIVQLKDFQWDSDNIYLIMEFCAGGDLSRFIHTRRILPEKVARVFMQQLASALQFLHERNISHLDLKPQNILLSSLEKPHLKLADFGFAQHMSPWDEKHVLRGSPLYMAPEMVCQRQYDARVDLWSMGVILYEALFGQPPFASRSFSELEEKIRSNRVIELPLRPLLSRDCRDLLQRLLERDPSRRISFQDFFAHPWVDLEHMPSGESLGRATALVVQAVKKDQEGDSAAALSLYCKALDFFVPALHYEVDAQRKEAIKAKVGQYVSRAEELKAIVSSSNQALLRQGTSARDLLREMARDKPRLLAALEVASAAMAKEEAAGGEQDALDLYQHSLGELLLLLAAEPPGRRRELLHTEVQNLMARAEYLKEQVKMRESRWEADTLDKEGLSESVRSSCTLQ

[5] = target: T2, kinases (KINOMEscan panel) (Homo sapiens, UniProt Q7L7X3); details: kinase TAOK1; Published KINOMEscan; ref original PKIS2 published data; cited from earlier work
T2 sequence (Q7L7X3 1-1001): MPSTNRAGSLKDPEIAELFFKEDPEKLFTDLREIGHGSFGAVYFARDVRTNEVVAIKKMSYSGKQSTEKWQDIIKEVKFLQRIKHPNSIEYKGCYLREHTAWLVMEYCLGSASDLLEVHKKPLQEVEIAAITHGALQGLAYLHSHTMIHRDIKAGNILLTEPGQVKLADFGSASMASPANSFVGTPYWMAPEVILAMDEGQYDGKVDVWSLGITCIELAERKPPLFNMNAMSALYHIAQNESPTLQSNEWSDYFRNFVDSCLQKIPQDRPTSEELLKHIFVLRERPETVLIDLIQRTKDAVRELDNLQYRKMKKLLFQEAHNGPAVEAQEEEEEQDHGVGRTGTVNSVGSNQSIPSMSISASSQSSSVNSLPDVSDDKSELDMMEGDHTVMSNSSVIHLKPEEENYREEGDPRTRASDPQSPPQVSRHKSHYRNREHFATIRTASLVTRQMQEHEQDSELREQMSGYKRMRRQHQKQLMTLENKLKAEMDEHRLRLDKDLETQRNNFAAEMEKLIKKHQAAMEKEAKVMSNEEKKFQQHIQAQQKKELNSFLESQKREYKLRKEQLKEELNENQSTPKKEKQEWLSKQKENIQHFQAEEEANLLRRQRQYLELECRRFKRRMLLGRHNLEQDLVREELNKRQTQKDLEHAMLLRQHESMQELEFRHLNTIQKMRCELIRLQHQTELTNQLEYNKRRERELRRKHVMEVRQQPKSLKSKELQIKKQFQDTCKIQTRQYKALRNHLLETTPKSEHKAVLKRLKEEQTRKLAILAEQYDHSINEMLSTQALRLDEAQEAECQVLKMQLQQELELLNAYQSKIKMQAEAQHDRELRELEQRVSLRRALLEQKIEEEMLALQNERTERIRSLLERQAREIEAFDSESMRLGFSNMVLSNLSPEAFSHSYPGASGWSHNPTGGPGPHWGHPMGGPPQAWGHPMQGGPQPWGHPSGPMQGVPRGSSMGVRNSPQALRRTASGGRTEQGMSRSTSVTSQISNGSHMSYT

[6] = target: kinases (KINOMEscan panel) (Homo sapiens, UniProt Q9H1R3); details: MYLK2; Published KINOMEscan; ref original PKIS2 published data; cited from earlier work
kinases (KINOMEscan panel) (Homo sapiens, UniProt Q9H1R3), sequence (Q9H1R3 whole entry): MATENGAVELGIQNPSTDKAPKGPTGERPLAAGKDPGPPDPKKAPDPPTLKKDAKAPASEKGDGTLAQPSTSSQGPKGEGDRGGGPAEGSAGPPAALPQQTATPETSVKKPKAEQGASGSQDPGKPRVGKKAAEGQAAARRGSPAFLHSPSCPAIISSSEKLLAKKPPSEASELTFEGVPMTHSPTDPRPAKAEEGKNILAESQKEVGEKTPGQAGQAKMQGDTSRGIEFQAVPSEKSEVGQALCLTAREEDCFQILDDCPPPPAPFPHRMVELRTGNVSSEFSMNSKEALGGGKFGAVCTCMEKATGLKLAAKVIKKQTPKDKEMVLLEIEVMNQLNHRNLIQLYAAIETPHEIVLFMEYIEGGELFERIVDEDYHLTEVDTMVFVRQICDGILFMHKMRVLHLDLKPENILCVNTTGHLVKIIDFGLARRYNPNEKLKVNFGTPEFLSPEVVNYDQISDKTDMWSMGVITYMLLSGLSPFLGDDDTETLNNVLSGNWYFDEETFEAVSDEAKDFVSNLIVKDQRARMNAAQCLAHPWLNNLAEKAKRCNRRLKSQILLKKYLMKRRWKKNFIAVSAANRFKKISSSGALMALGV

[7] = target: T3, kinases (KINOMEscan panel) (Homo sapiens, UniProt Q9H2K8); details: kinase TAOK3; Published KINOMEscan; ref original PKIS2 published data; cited from earlier work
T3 sequence (Q9H2K8 1-898): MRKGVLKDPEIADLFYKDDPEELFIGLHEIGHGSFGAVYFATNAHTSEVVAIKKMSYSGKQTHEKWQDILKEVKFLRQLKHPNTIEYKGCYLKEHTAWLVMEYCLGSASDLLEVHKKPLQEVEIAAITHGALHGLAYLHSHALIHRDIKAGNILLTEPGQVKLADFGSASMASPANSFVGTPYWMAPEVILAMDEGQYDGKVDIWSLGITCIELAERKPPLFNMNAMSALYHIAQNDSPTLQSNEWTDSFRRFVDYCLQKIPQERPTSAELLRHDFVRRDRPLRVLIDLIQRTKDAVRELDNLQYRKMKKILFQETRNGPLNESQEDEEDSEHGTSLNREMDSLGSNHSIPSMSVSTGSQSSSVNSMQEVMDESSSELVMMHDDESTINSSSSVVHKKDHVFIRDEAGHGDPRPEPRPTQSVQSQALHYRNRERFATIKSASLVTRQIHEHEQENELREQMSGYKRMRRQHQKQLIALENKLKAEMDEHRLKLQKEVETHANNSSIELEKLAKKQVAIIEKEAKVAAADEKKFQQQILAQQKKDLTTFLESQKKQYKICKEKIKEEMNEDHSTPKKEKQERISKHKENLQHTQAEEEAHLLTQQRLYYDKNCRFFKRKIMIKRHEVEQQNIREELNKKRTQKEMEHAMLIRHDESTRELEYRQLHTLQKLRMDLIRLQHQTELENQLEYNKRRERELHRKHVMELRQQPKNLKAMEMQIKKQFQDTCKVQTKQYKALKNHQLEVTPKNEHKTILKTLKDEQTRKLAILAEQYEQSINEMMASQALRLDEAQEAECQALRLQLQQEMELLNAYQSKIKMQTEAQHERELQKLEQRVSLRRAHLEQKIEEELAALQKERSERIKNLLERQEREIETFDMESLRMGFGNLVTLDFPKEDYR

kinases (KINOMEscan panel) (Homo sapiens, UniProt P08631), sequence (P08631 whole entry): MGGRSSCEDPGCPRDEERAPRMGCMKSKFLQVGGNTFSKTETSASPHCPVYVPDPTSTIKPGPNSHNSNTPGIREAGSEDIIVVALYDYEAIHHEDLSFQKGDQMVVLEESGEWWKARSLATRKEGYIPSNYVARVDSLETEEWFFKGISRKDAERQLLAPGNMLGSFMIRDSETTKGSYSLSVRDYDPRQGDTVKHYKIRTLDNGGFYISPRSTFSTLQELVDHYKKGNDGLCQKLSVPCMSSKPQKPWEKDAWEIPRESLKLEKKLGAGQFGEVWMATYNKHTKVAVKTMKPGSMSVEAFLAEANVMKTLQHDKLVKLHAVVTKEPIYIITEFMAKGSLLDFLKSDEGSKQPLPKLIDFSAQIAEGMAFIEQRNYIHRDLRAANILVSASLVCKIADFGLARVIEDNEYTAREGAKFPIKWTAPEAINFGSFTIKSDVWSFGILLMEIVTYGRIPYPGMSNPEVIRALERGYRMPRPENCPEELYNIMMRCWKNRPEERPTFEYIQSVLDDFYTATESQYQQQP

## Cc1cccc(-c2nc(Nc3ccncc3)c3ccccc3n2)n1 [NK215]
[1]
  KINOMEscan HCK: 11
[2]
  KINOMEscan TIE1: 20
[3]
  KINOMEscan AAK1: 2
[4]
  KINOMEscan ULK3: 8
[5]
  KINOMEscan TAOK1: 0
[6]
  KINOMEscan MYLK2: 7
[7]
  KINOMEscan TAOK3: 0
